Test results taken from the NIST ThermoML archive (doi:10.1016/j.jct.2010.12.014).
Where “and” joins values, the source holds several entries; their conditions need not be identical. Identical values can stand only once. ± gives the expanded uncertainty stated by the source.

Columns and labels:
[1] = xn = mol fraction of the nth substance listed; conditions: 298.15 K, 101 kPa, Liquid, Vibrating tube method
[2] = 298.15 K; 101.33 kPa; Liquid; Vibrating tube method
[3] = refractive index (Na D-line) (dimensionless); conditions: 298.15 K; 101.33 kPa; Liquid; Standard Abbe refractometry

SMILES | mass density [2] [kg/m3] | refractive index [3] | further results
CCOS(=O)(=O)[O-].CCn1cc[n+](C)c1 [1-ethyl-3-methylimidazolium ethyl sulfate] + CC1CCCCC1 |  |  | mass density ([1]; x2 = 0.026): 1232.26 ± 0.42 kg/m3
C1CCCCCCC1 [cyclooctane] | 831.47 ± 0.24 | 1.45598 ± 0.00037 | 
CCOS(=O)(=O)[O-].CCn1cc[n+](C)c1 [1-ethyl-3-methylimidazolium ethyl sulfate] + C1CCCCC1 |  |  | mass density ([1]; x2 = 0.027): 1230.94 ± 0.41 kg/m3
C1CCCCCCC1 [cyclooctane] + CCOS(=O)(=O)[O-].CCn1cc[n+](C)c1 |  |  | mass density ([1]; x1 = 0.012): 1232.65 ± 0.42 kg/m3
CCOS(=O)(=O)[O-].CCn1cc[n+](C)c1 [1-ethyl-3-methylimidazolium ethyl sulfate] + CCc1ccccc1 |  |  | mass density ([1]; x2 = 0.124): 1210.43 ± 0.35 kg/m3 and 1210.4 ± 0.35 kg/m3
CC1CCCCC1 [methylcyclohexane] | 765.02 ± 0.13 | 1.42062 ± 0.00031 | 
C1CCCCC1 [cyclohexane] | 773.8 ± 0.13 | 1.4236 ± 0.00031 | 

Further lines, with some results ahead:

mass density [2] [kg/m3] | refractive index [3] | SMILES | further results
862.51 ± 0.11 | 1.49304 ± 0.00031 | CCc1ccccc1 [ethylbenzene] | 
1237.23 ± 0.43 | 1.4791 ± 0.00037 | CCOS(=O)(=O)[O-].CCn1cc[n+](C)c1 [1-ethyl-3-methylimidazolium ethyl sulfate] | 
